In patent US20230374015A1, “INHIBITORS OF FIBROBLAST GROWTH FACTOR RECEPTOR KINASES” (Kinnate Biopharma Inc., priority 2020, published 2023):

The compounds below were run against FGFR2 (Homo sapiens, UniProt P21802) (assay: FGFR2 Kinase Protocol - Condition 2 (Reaction Biology HotSpot radiometric kinase assay, no preincubation)). Conditions: poly[Glu:Tyr] (4:1) 0.2 mg/ml, ATP 100 microM, 2 hr room temperature.
Format: biochemical
How it was run: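 Radiometric HotSpot format: FGFR2 (wildtype or V564F) with poly[Glu:Tyr] (4:1) at 0.2 mg/ml in HEPES pH 7.5 buffer with 1% DMSO; ATP plus [γ33P]ATP at 100 µM total, added without preincubation. Reactions ran 2 hr at room temperature, then filter-bound. IC50 from 10-dose, 3-fold series versus DMSO control.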

Chain of FGFR2 (P21802 22-821): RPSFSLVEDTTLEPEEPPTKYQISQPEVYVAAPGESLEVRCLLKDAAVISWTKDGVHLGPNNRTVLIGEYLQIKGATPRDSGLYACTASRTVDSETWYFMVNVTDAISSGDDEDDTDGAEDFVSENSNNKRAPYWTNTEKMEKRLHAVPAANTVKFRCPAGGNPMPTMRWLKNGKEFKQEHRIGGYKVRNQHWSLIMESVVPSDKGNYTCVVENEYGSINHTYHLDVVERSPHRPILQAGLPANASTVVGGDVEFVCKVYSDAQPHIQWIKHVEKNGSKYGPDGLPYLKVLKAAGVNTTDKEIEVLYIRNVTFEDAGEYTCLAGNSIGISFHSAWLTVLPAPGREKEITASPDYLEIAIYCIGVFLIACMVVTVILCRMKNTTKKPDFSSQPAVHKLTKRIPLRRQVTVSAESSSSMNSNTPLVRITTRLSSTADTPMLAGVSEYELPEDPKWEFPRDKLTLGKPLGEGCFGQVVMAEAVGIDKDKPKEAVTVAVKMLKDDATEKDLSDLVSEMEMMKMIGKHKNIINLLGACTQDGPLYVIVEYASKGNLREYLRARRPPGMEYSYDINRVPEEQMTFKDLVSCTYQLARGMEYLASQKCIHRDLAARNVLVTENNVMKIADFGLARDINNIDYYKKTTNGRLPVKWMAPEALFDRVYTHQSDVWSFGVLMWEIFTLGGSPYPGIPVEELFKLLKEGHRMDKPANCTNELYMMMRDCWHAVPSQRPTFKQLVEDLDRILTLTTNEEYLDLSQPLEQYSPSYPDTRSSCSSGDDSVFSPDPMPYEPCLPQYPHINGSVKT

IC50, ≤ 0.1 µM:
C=CC(=O)N1C[C@@H](n2nc(C#Cc3cc4ncn(C)c4cc3Cl)c3c(N)nccc32)C[C@@H]1COC [Example 98, 1-[(2R,4S)-4-[4-Amino-3-[2-(6-chloro-1-methyl-1,3-benzodiazol-5-yl)ethynyl]pyrazolo[4,3-c]pyridin-1-yl]-2-(methoxymethyl)pyrrolidin-1-yl]prop-2-en-1-one]
C=CC(=O)N1C[C@@H](n2nc(C#Cc3cc4nc(C)[nH]c4cc3Cl)c3c(N)ncnc32)C[C@@H]1COC [Example 99, 1-[(2R,4S)-4-[4-Amino-3-[2-(6-chloro-2-methyl-1H-1,3-benzodiazol-5-yl)ethynyl]pyrazolo[3,4-d]pyrimidin-1-yl]-2-(methoxymethyl)pyrrolidin-1-yl]prop-2-en-1-one]
C=CC(=O)N1C[C@@H](n2nc(C#Cc3cc4nc(C)[nH]c4cc3Cl)c3c(N)nccc32)C[C@@H]1COC [Example 100, 1-[(2R,4S)-4-[4-Amino-3-[2-(6-chloro-2-methyl-1H-1,3-benzodiazol-5-yl)ethynyl]pyrazolo[4,3-c]pyridin-1-yl]-2-(methoxymethyl)pyrrolidin-1-yl]prop-2-en-1-one]
C=CC(=O)N1C[C@@H](n2cc(C#Cc3cc4nc(C)n(C)c4cc3Cl)c3c(N)ncnc32)C[C@@H]1COC [Example 101, 1-[(2R,4S)-4-[4-Amino-5-[2-(6-chloro-1,2-dimethyl-1,3-benzodiazol-5-yl)ethynyl]pyrrolo[2,3-d]pyrimidin-7-yl]-2-(methoxymethyl)pyrrolidin-1-yl]prop-2-en-1-one]
C=CC(=O)N1C[C@@H](n2nc(C#Cc3c(Cl)cc4c(nc(C)n4C)c3F)c3c(N)ncnc32)C[C@@H]1COC [Example 102, 1-((2R,4S)-4-(4-Amino-3-((6-chloro-4-fluoro-1,2-dimethyl-1H-benzo[d]imidazol-5-yl)ethynyl)-1H-pyrazolo[3,4-d]pyrimidin-1-yl)-2-(methoxymethyl)pyrrolidin-1-yl)prop-2-en-1-one]
C=CC(=O)N1C[C@@H](n2nc(C#Cc3c(Cl)cc4c(nc(C)n4C)c3F)c3c(N)nccc32)C[C@@H]1COC [Example 103, 1-((2R,4S)-4-(4-Amino-3-((6-chloro-4-fluoro-1,2-dimethyl-1H-benzo[d]imidazol-5-yl)ethynyl)-1H-pyrazolo[4,3-c]pyridin-1-yl)-2-(methoxymethyl)pyrrolidin-1-yl)prop-2-en-1-one]
C=CC(=O)N1C[C@@H](n2nc(C#Cc3c(Cl)cc4c(ncn4C)c3F)c3c(N)ncnc32)C[C@@H]1COC [Example 104, 1-[(2R,4S)-4-[4-Amino-3-[2-(6-chloro-4-fluoro-1-methyl-1,3-benzodiazol-5-yl)ethynyl]pyrazolo[3,4-d]pyrimidin-1-yl]-2-(methoxymethyl)pyrrolidin-1-yl]prop-2-en-1-one]
C=CC(=O)N1C[C@@H](n2nc(C#Cc3c(Cl)cc4c(ncn4C)c3F)c3c(N)nccc32)C[C@@H]1COC [Example 105, 1-[(2R,4S)-4-[4-Amino-3-[2-(6-chloro-4-fluoro-1-methyl-1,3-benzodiazol-5-yl)ethynyl]pyrazolo[4,3-c]pyridin-1-yl]-2-(methoxymethyl)pyrrolidin-1-yl]prop-2-en-1-one]
C=CC(=O)N1C[C@@H](n2cc(C#Cc3c(Cl)cc4c(ncn4C)c3F)c3c(N)ncnc32)C[C@@H]1COC [Example 106, 1-[(2R,4S)-4-[4-Amino-5-[2-(6-chloro-4-fluoro-1-methyl-1,3-benzodiazol-5-yl)ethynyl]pyrrolo[2,3-d]pyrimidin-7-yl]-2-(methoxymethyl)pyrrolidin-1-yl]prop-2-en-1-one]
C=CC(=O)N1C[C@@H](n2cc(C#Cc3c(F)cc4[nH]c(C)nc4c3F)c3c(N)ncnc32)C[C@@H]1COC [Example 107, 1-[(2R,4S)-4-[4-Amino-5-[2-(4,6-difluoro-2-methyl-1H-1,3-benzodiazol-5-yl)ethynyl]pyrrolo[2,3-d]pyrimidin-7-yl]-2-(methoxymethyl)pyrrolidin-1-yl]prop-2-en-1-one]
